The values that follow come from patent US20140142170A1, “COMPOSITION AND METHOD FOR INFLUENCING ENERGY METABOLISM AND TREATING METABOLIC AND OTHER DISORDERS” (SIRTUIN VALLEY OY, priority 2010, published 2014).

SMILES strings stand for the structures. Entries after “also recorded” stand apart in the source; their conditions may differ.

Common to all, as to type: cell-based
Assay [1] has as its system mitochondria of 3T3L1 preadipocytes. Kind of assay: Mitochondrial staining with MitoTracker green, confocal microscopy. As to conditions: 60 μM, 24 hours. The procedure: The 3T3L1 preadipocytes were plated onto Ibidi u-slide 8 well plates at 1.6×10^4 cells/well and incubated at 37° C. in a humidified atmosphere with 10% CO2. The media was removed after 24 hours, the cells were treated with 60 μM GR24 and incubated for 24 hours at 37° C. in a humidified atmosphere with 10% CO2. After 24 hours of treatment, staining of mitochondria was done using 200 nM MitoTracker Mitochondrion-Selective Probes (Green FM probes Cat.#M7514, Invitrogen) according to the manufacturer's instructions. The cells were observed using a confocal microscope and images were taken at 40× oil immersion.
Preadipocytes were treated with DMSO (Vehicle control) (FIG. 5A), 60 μM resveratrol (FIG. 5B) or 60 μM strigolactone analog GR24 (FIG. 5C) for 24 hours. Next, preadipocytes were stained with MitoTracker green and observed under a confocal microscope at 40× oil immersion. […] The white oval shaped structures are nucleus and the white thread-like structures around the nucleus in the cytoplasm are mitochondria. When compared to the control, there was an increase in mitochondrial biogenesis represented by elongated mitochondria, and an increase in mitochondrial activation represented by the intensity of fluorescence, in cells treated with resveratrol and GR24. […] Thus, GR24 enhances both biogenesis and activity of mitochondria, which is necessary to generate ATP.

Assay [2] concerns phospho-AMPK. In words: phospho-AMPK expression / AMPK activation, immunoblot in 3T3 L1 preadipocytes. As to conditions: 24 hours; for phospho-AMPK expression compared to control: 60 μM; for phosphorylated AMPK expression vs control: 3T3L1 preadipocytes, 100 μM. The procedure:
(§1) 3T3L1 cells were purchased from American Type Culture Collection (Manassas, Va., USA) and cultured in DMEM media containing 4.5 g/l glucose supplemented with 10% fetal bovine serum (Hyclone), 2 mM L-glutamine (Gibco), 100 U/ml penicillin, and 100 μg/ml streptomycin (Gibco). The cells were cultured at 37° C. in a humidified atmosphere with 10% CO2.
(§2) The 3T3L1 cells were plated at 6×10^4 cells/well in 12 well plates and incubated at 37° C. in a humidified atmosphere with 10% CO2. […] The media was removed, cells were washed with PBS, and cell lysates were collected on ice. Proteins were extracted using RIPA buffer along with protease and phosphatase inhibitors. Lysates were centrifuged for 30 min at high speed; supernatant was collected and stored at […] until further analysis. The vehicle controls were 3T3 L1 cells without any treatment with drugs or other compounds. The drugs or compounds that were used in all the experiments were dissolved or diluted in dimethylsulfoxide (DMSO) as diluent. In all experiments, the controls were treated with the same volume of DMSO as was used to dissolve drugs or compounds in compound-treated cells to show and ensure that the actual change in protein expression in different treatments was due solely to the compounds or combination of compounds and not to the DMSO.
Protein concentrations were measured using a BCA (bicinchoninic acid) protein assay kit (Cat.#23225; Pierce, Rockford, Ill.). Twenty (20) μg/lane of total cellular protein samples containing NuPAGE LDS sample buffer (Invitrogen) and reducing agent were loaded into 4-12% NuPAGE Bis-Tris gels (Invitrogen), subjected to gel electrophoresis, and transferred to polyvinylidene fluoride membranes (Amersham). For SIRT1 proteins, membranes were blocked in 0.05% TBS-Tween with 3% milk for 1 hour, incubated overnight at +4° C. with SIRT1 primary antibodies (Cat.#07-131, Millipore). For phospho-AMPKα and AMPKα proteins, blocking was done for 1 hour in 0.1% TBS-Tween with 5% milk. The membranes were incubated overnight at +4° C. with phospho-AMPKα (Cat. #2535, Cell Signaling) and AMPKα (Cat.#2532, Cell Signaling) primary antibodies. Horseradish peroxidase-conjugated anti-rabbit antibodies (Cat. #NA934V GE Health Care, Amersham, U.K) were used as secondary antibodies. For α-tubulin (loading control), membranes were blocked in 0.05% PBS-Tween with 3% milk for 1 hour, incubated with α-tubulin (Cat.# B-5-1-2, Sigma) primary antibodies for 1 hour at room temperature and horseradish peroxidase-conjugated anti-mouse (Cat. # NA 931V GE Health Care, Amersham, U.K.) IgG antibodies were used as secondary antibodies.
The membranes were developed using chemiluminescence (ECL plus, GE Health Care), and images were captured in an Image Quant RT-ECL machine (version 1.0.1; GE Health Care). Densitometry and quantification of the bands were done by applying Quantity One software (Bio-Rad). The expression levels of the proteins were normalized to α-tubulin protein levels.
(Immunoblotting shows a protein as a band on a membrane.)

The subject of assay [3] is PGC-1α. Kind of assay: PGC-1α protein expression, immunoblot and densitometry in 3T3 L1 preadipocytes. As to conditions: 3T3L1 preadipocytes, 100 μM, 24 hours.
The subject of assay [4] is AMPK. Kind of assay: total AMPK expression, immunoblot in 3T3L1 preadipocytes. The conditions noted are these: 100 μM, 24 hours. The procedure:
as §1
as §2, with “In all experiments, the controls were treated with the same volume of DMSO as was used to dissolve drugs or compounds in compound-treated cells to show and ensure that the actual change in protein expression in different treatments was due solely to the compounds or combination of compounds and not to the DMSO.” left out
Protein concentrations were measured using a BCA (bicinchoninic acid) protein assay kit (Cat.#23225; Pierce, Rockford, Ill.). […]
The membranes were developed using chemiluminescence (ECL plus, GE Health Care), and images were captured in an Image Quant RT-ECL machine (version 1.0.1; GE Health Care). Densitometry and quantification of the bands were done by applying Quantity One software (Bio-Rad). […]

With `CC1=CC(O/C=C2/C(=O)O[C@@H]3c4ccccc4C[C@H]23)OC1=O` (some centres unmarked) [GR24], in assay [1], the “increase in intensity of staining, visibility” value is recorded as “clearly visible only in the GR24 treated cells”. Also, the “mitochondrial activation (intensity of fluorescence) compared to control” value in assay [1] is reported as “increase”. In addition, the “mitochondrial biogenesis (elongated mitochondria) compared to control” value in assay [1] is “increase”. Moreover, the “AMPK activation (pAMPK/AMPK/α-tubulin ratio) compared to control” value in assay [2] (3T3 L1 preadipocytes, 60 μM each compound) was “no activation”. The “phospho-AMPK expression compared to control” value in assay [2] (3T3 L1 preadipocytes) was “significant increase in expression with resveratrol but not with GR24; also recorded: did not”; in assay [2] (3T3 L1 preadipocytes, listed as GR 24), “significant increase in expression with resveratrol but not with GR 24”. Further, the results for the “phosphorylated AMPK expression vs control” value in assay [2] and in assay [2] (listed as GR 24) were “down-regulated” and “down-regulation”, respectively. For the same compound, the “PGC-1α expression vs control” value in assay [3] was “significantly increased”; in assay [3] (listed as GR 24), “activation”. The “total AMPK expression vs control” value in assay [4] is given as “down-regulated”.
